Results as given in ChEMBL document CHEMBL1137828, “Spiroquinazolinones as novel, potent, and selective PDE7 inhibitors. Part 2: Optimization of 5,8-disubstituted derivatives” (Bioorg Med Chem Lett, 2004).
≈ marks a conversion by molar mass, not a printed value. Values belong to the compound of their own block, whether it stands above or below them.

Experiments:
[1] = target: 3',5'-cyclic-AMP phosphodiesterase 4D (Homo sapiens, UniProt Q08499); test: Inhibition of human PDE4D3 expressed in baculovirus infected Sf9 cells
[2] = target: cGMP-inhibited 3',5'-cyclic phosphodiesterase 3A (Homo sapiens, UniProt Q14432); test: Inhibition of human PDE3A3 expressed in baculovirus infected Sf9 cells
[3] = target: T1, Phosphodiesterase 1 (Homo sapiens, UniProt P54750+Q01064+Q14123); test: Inhibition of human PDE1 partially purified from THP-1 cells; format: cell-free
[4] = Solubility in HCl/KCl buffer at pH 1; format: physicochemical
[5] = Solubility in Na2HPO4/NaH2PO4 buffer at pH 7.4; format: physicochemical
[6] = target: cGMP-specific 3',5'-cyclic phosphodiesterase (Homo sapiens, UniProt O76074); test: Inhibition of human PDE5 partially purified from MCF-7 cells; format: cell-free, MCF7
[7] = target: High affinity 3',5'-cyclic-AMP phosphodiesterase 7A (Homo sapiens, UniProt Q13946); test: Inhibition of human PDE7A1 expressed in baculovirus infected Sf9 cells
[8] = Volume of distribution in rats when administered at a dose of 0.5 mg/kg i.v.; format: ADME, organism-based; design: dose 0.5 mg/kg, route intravenous; conditions: rat, in vivo, iv
[9] = Half-life in rats after peroral administration of 2.5 mg/kg; format: ADME, organism-based; design: dose 2.5 mg/kg, route oral; conditions: rat, in vivo, po
[10] = Oral bioavailability in rat (dose 2.5 mg/kg); format: ADME, organism-based; conditions: in vivo
[11] = Clearance in rats when administered at a dose of 0.5 mg/kg i.v.; format: ADME, organism-based; design: dose 0.5 mg/kg, route intravenous; conditions: rat, in vivo, iv
[12] = target: T1, Phosphodiesterase 1; test: Inhibition of human PDE1 expressed in baculovirus infected Sf9 cells

Chain of High affinity 3',5'-cyclic-AMP phosphodiesterase 7A (Q13946 whole entry): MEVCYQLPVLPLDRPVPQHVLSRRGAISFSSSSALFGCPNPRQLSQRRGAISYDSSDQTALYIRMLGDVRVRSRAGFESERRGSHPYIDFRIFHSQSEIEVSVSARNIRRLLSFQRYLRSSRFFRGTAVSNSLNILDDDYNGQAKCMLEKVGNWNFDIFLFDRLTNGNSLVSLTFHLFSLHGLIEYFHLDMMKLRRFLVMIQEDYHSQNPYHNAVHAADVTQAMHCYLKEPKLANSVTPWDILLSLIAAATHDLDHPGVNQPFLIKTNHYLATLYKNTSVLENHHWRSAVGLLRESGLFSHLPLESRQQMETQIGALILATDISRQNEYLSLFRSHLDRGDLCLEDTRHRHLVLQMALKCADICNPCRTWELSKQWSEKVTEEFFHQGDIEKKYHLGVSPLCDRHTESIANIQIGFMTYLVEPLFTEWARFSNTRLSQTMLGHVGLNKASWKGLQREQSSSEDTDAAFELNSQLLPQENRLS
Chain of cGMP-inhibited 3',5'-cyclic phosphodiesterase 3A (Q14432 whole entry): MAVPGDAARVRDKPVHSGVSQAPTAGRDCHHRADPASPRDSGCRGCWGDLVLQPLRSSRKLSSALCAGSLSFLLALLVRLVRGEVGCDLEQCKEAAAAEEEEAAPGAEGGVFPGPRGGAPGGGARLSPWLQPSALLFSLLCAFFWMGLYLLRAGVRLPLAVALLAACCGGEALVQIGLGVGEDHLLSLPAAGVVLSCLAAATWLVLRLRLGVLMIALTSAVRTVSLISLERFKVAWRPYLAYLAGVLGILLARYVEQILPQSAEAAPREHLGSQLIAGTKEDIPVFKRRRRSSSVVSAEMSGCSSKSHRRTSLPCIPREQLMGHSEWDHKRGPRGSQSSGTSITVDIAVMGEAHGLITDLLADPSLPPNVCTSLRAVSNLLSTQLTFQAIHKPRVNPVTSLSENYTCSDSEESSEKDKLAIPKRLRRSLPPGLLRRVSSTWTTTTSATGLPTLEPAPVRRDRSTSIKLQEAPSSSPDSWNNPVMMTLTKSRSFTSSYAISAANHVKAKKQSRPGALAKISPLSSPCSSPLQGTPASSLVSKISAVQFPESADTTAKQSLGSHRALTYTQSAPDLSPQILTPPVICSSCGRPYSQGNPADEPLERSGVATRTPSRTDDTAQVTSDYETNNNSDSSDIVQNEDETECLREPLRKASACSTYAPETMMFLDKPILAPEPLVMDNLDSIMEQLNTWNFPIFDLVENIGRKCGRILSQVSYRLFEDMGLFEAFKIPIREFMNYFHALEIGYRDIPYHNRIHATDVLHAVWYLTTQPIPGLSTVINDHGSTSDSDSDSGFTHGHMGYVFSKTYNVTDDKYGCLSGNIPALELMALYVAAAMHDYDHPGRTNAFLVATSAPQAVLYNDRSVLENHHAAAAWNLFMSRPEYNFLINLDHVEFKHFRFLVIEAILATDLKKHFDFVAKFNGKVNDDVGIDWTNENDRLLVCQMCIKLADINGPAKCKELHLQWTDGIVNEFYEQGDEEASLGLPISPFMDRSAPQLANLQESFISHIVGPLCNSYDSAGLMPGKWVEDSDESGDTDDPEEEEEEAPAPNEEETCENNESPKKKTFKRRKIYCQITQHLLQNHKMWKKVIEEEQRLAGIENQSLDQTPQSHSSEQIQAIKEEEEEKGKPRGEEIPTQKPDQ
Chain of 3',5'-cyclic-AMP phosphodiesterase 4D (Q08499 whole entry): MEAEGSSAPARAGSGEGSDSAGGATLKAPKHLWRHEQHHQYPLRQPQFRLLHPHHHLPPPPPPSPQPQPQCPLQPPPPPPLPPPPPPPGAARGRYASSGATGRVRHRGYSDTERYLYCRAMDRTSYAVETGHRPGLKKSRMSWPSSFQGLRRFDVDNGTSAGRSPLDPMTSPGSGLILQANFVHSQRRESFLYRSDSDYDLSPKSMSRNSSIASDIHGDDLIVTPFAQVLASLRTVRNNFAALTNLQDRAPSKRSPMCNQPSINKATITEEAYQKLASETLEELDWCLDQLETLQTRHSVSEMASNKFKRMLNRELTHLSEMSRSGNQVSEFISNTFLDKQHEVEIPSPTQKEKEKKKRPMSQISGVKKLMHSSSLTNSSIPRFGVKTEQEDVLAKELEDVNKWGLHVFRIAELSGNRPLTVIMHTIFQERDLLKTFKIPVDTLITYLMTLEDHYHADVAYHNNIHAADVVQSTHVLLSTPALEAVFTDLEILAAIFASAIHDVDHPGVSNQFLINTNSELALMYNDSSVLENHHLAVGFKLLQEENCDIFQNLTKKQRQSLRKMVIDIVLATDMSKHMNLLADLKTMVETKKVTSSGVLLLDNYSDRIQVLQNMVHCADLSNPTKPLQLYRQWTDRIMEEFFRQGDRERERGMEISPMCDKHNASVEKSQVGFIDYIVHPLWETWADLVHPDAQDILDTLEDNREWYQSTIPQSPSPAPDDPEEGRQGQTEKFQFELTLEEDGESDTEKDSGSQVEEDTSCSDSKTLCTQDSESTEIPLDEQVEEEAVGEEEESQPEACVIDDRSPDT

IC50 [7]: 0.01 µM
SMILES: O=C1Nc2c(Cl)ccc(O)c2C2(CCCCC2)N1

IC50 [1]: 53.2 µM
IC50 [2]: > 101 µM
IC50 [3]: 72.4 µM
solubility [4]: > 500 µg/mL
solubility [5]: > 500 µg/mL
IC50 [6]: > 101 µM
IC50 [7]: 0.96 µM
SMILES: CNCCOc1ccc(Cl)c2c1C1(CCCCC1)NC(=O)N2

IC50 [7]: 0.01 µM
SMILES: COc1ccc(Cl)c2c1C1(CCCCC1)NC(=O)N2

IC50 [1]: 10.5 µM
IC50 [2]: > 101 µM
IC50 [3]: 33 µM
solubility [4]: > 500 µg/mL
solubility [5]: 190 µg/mL (≈ 613 µM)
IC50 [6]: 73.2 µM
IC50 [7]: 1.04 µM
SMILES: NCCOc1ccc(Cl)c2c1C1(CCCCC1)NC(=O)N2

IC50 [7]: 0.17 µM
SMILES: O=C1Nc2c(Cl)cccc2C2(CCCCC2)N1

IC50 [7]: 0.1 µM
SMILES: Cc1ccc(Cl)c2c1C1(CCCCC1)NC(=O)N2

IC50 [7]: 0.01 µM
SMILES: O=C1Nc2c(Cl)ccc(Cl)c2C2(CCCCC2)N1

Further lines, the compound ahead of its results:

SMILES: O=C1Nc2c(Cl)ccc(OCc3noc(O)n3)c2C2(CCCCC2)N1
IC50 [1]: 0.82 µM
IC50 [2]: 21.9 µM
IC50 [3]: 0.61 µM
solubility [4]: < 1 µg/mL
solubility [5]: 113 µg/mL (≈ 310 µM)
IC50 [6]: > 101 µM
IC50 [7]: 0.0035 µM

SMILES: O=C(O)COc1ccc(Cl)c2c1C1(CCCCC1)NC(=O)N2
IC50 [1]: 15 µM
Vd [8]: 1.04 L/kg
half-life [9]: 1.4 h
IC50 [2]: > 68 µM
bioavailability [10]: 21%
IC50 [3]: 4.76 µM
solubility [4]: 1 µg/mL (≈ 3.08 µM)
clearance [11]: 39.4 mL/min/kg
solubility [5]: > 500 µg/mL
IC50 [6]: > 101 µM
IC50 [7]: 0.04 µM

SMILES: O=C1Nc2c(Cl)ccc(OCCO)c2C2(CCCCC2)N1
IC50 [1]: 12.2 µM
Vd [8]: 1.41 L/kg
half-life [9]: 1.5 h
IC50 [2]: > 73 µM
bioavailability [10]: 27%
IC50 [3]: 10.5 µM
solubility [4]: 11 µg/mL (≈ 35.4 µM)
clearance [11]: 33.6 mL/min/kg
solubility [5]: 18 µg/mL (≈ 57.9 µM)
IC50 [6]: > 91 µM
IC50 [7]: 0.05 µM

SMILES: CN(C)CC(O)COc1ccc(Cl)c2c1C1(CCCCC1)NC(=O)N2 (stereo unspecified)
IC50 [1]: 55 µM
IC50 [2]: > 101 µM
IC50 [3]: > 101 µM
solubility [4]: > 500 µg/mL
solubility [5]: 137 µg/mL (≈ 372 µM)
IC50 [6]: > 101 µM
IC50 [7]: 0.4 µM

SMILES: N#CCOc1ccc(Cl)c2c1C1(CCCCC1)NC(=O)N2
IC50 [1]: 1.7 µM
IC50 [2]: 94 µM
IC50 [3]: 5.86 µM
solubility [4]: 4 µg/mL (≈ 13.1 µM)
solubility [5]: 4 µg/mL (≈ 13.1 µM)
IC50 [6]: > 101 µM
IC50 [7]: 0.02 µM

SMILES: NCCOCCOc1ccc(Cl)c2c1C1(CCCCC1)NC(=O)N2
IC50 [1]: 99 µM
IC50 [2]: > 101 µM
IC50 [3]: > 101 µM
solubility [4]: > 500 µg/mL
solubility [5]: > 500 µg/mL
IC50 [6]: > 101 µM
IC50 [7]: 1.62 µM

SMILES: O=C1Nc2c(Cl)ccc(OCc3nn[nH]n3)c2C2(CCCCC2)N1
IC50 [1]: 0.32 µM
IC50 [2]: 11.8 µM
solubility [4]: < 1 µg/mL
solubility [5]: 345 µg/mL (≈ 989 µM)
IC50 [6]: > 88 µM
IC50 [12]: 0.32 µM
IC50 [7]: 0.004 µM

SMILES: CN(C)CCOc1ccc(Cl)c2c1C1(CCCCC1)NC(=O)N2
IC50 [1]: 3.28 µM
IC50 [2]: > 101 µM
IC50 [3]: 19 µM
solubility [4]: > 500 µg/mL
solubility [5]: 195 µg/mL (≈ 577 µM)
IC50 [6]: 74 µM
IC50 [7]: 0.15 µM

SMILES: CN(C)CCCOc1ccc(Cl)c2c1C1(CCCCC1)NC(=O)N2
IC50 [1]: 23.7 µM
IC50 [2]: > 101 µM
IC50 [3]: > 101 µM
IC50 [6]: 98 µM
IC50 [7]: 1.24 µM

SMILES: O=C1Nc2c(Cl)ccc(OCCN3CCOCC3)c2C2(CCCCC2)N1
IC50 [1]: 7.35 µM
Vd [8]: 1.02 L/kg
half-life [9]: 0.32 h
IC50 [2]: > 101 µM
bioavailability [10]: 3.7%
IC50 [3]: 29 µM
solubility [4]: > 500 µg/mL
clearance [11]: 62.8 mL/min/kg
solubility [5]: 4 µg/mL (≈ 10.5 µM)
IC50 [6]: > 101 µM
IC50 [7]: 0.03 µM

SMILES: CCOC(=O)c1ccc(COc2ccc(Cl)c3c2C2(CCCCC2)NC(=O)N3)o1
IC50 [1]: 1.02 µM
IC50 [2]: 78 µM
IC50 [3]: 2.98 µM
IC50 [6]: 80 µM
IC50 [7]: 0.01 µM

SMILES: O=C1Nc2c(Cl)ccc(OCCCS(=O)(=O)O)c2C2(CCCCC2)N1
IC50 [1]: 2.41 µM
IC50 [2]: 12.7 µM
IC50 [3]: 0.65 µM
solubility [4]: > 500 µg/mL
solubility [5]: > 500 µg/mL
IC50 [6]: 60 µM
IC50 [7]: 0.01 µM

SMILES: O=C(O)CNCCOc1ccc(Cl)c2c1C1(CCCCC1)NC(=O)N2
IC50 [1]: 14.7 µM
Vd [8]: 0.47 L/kg
half-life [9]: 2.7 h
IC50 [2]: > 101 µM
bioavailability [10]: 6.5%
IC50 [3]: 29.7 µM
solubility [4]: > 500 µg/mL
clearance [11]: 39.9 mL/min/kg
solubility [5]: 230 µg/mL (≈ 625 µM)
IC50 [6]: > 101 µM
IC50 [7]: 0.04 µM

SMILES: CNCC(O)COc1ccc(Cl)c2c1C1(CCCCC1)NC(=O)N2 (stereo unspecified)
IC50 [1]: 12 µM
IC50 [2]: > 101 µM
IC50 [3]: > 101 µM
solubility [4]: > 500 µg/mL
solubility [5]: > 500 µg/mL
IC50 [6]: > 101 µM
IC50 [7]: 0.21 µM

SMILES: O=C1Nc2c(Cl)ccc(OCc3ccc(C(=O)O)o3)c2C2(CCCCC2)N1
IC50 [1]: 1.13 µM
IC50 [2]: 10.8 µM
IC50 [3]: 1.6 µM
solubility [4]: < 1 µg/mL
solubility [5]: 100 µg/mL (≈ 256 µM)
IC50 [6]: > 101 µM
IC50 [7]: 0.016 µM
